Results published in ChEMBL document CHEMBL5729152, “Lysyl oxidase-like 2 inhibitors and uses thereof” (2022).

Molecular target: T1, Lysyl oxidase homolog 2 (Homo sapiens, UniProt Q9Y4K0)
T1 sequence (Q9Y4K0 whole entry): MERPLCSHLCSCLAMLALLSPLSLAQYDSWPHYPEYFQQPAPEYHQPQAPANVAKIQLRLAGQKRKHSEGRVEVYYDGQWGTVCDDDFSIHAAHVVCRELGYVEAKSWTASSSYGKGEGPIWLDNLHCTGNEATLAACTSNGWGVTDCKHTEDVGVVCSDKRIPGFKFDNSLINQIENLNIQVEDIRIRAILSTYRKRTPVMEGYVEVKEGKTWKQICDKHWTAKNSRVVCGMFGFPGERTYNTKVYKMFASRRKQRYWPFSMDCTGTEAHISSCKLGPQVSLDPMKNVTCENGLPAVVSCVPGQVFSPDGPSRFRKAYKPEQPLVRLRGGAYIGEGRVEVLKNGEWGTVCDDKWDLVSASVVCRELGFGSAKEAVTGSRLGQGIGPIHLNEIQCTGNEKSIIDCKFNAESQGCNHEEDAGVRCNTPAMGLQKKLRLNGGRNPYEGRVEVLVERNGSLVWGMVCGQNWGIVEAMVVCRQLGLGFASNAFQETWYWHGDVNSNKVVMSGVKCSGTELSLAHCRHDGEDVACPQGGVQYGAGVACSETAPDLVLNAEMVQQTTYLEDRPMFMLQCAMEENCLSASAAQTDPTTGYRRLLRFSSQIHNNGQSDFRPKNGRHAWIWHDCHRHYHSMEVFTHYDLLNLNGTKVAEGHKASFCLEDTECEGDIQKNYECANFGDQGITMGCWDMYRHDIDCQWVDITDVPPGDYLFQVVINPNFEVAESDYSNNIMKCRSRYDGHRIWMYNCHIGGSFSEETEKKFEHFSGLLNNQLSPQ
Assay: Human LOXL2 Amine Oxidase Activity Assay: LOXL2 amine oxidase activity is evaluated by measuring Amplex Red fluorescence using 10-20× concentrated conditioned media from CHO cells stably expressing human LOXL2. To assay for amine oxidase activity, 10 μL of the concentrated conditioned media is incubated with 2 μL of test compound in DMSO and 73 μL Assay Buffer (50 mM Borate Buffer, pH8) for 2 h at 37° C. After the 2 h incubation, 5 μl of 10 mM 1,5-Diaminopentane (DAP) diluted in Assay Buffer and 10 μl of Amplex Red Mix (8.5 μl Assay Buffer+0.5 μl of 10 mM Amplex Red+1 μl of 500 U/ml Horseradish Peroxidase) are added and the plate mixed and immediately placed on the FlexStaion for fluorescence measurements. Fluorescence is read in kinetic mode every 2 min for 1 hour at excitation=544 and emission=590. The amine oxidase activity is calculated from the slope of the linear portion of the curve

IC50 [nM]	Compound
< 300	NCc1ccnc(C(=O)NCc2ccccc2)c1
< 300	CCN1CCN(Cc2ccc(CNC(=O)c3cccc(Oc4cc(CN)ccn4)c3)cc2)CC1
